From US20100216779A1 (GLAXOSMITHKLINE LLC, priority 2007, published 2010)

What was measured:
[1] = test system: COLO205 (colon); test: Inhibition of cell proliferation, CellTiter-Glo, COLO205; type: cell-based; details: Homo sapiens, COLO 205, 72 h
In short: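 Exponentially growing COLO205 cells in medium with 10% FBS were plated below 2000 cells/well at 37 °C, 5% CO2. Untreated wells served as controls.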

[2] = target: T1, human IGF-1R (NIH-3T3 cells over expressing human IGF-1R) (Homo sapiens, UniProt P08069); test: IGF-1R cellular autophosphorylation (DELFIA); type: cell-based; details: IGF-1 stimulated
T1 construct: expressed in transfected cells; host or cells: NIH-3T3 (mouse fibroblasts)
In short: (§1)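 Autophosphorylation of IGF-1R or IR is measured in NIH-3T3 lines overexpressing each human receptor after 2 h compound pretreatment and a 15 min ligand challenge (IGF-1 30 ng/mL; insulin 3 ug/mL). Fluorescence is normalised to 100% stimulation.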

[3] = test system: LISN cell (mouse 3T3 fibroblasts transduced with human IGF-1R) tumors; test: In vivo efficacy, mice bearing LISN cell tumors; details: for tumor growth inhibition at day 21: LISN (start approx. 362 mm^3)
Description: E. In Vivo Efficacy—Mouse Models
The efficacy of the compounds of Examples 57 and 58 were assessed together in an in vivo efficacy experiment performed on mice bearing LISN cell (mouse 3T3 fibroblasts transduced with human IGF-1R) tumors. Fifty six female nude mice bearing subcutaneous LISN cell tumors were measured for tumor size and body weight and block randomized into seven groups of eight mice with an equal average tumor volume of approximately 200 mm3. Mice were dosed with either vehicle (20% SBE pH3.5), Example 57 or Example 58. The dosing schedules for each compound were based on previous experiments with the compounds and doses chosen to give the highest tumor growth inhibition and a dose response. Example 58 was dosed at 30, 100 and 300 mg/kg QD for 21 days while Example 57 was dosed at 30 mg/kg QD for 21 days, 15 mg/kg BID for 21 days and 30 mg/kg QDx3 days/week for 3 weeks.
The tumors on mice being treated with vehicle grew with the expected exponential growth throughout the 21 day study. […] The lower dose of 30 mg/kg of Example 58 achieved 28% tumor growth inhibition.
The efficacy of the compounds of Examples 237 and 219 were assessed together in an in vivo efficacy experiment performed on mice bearing LISN cell (mouse 3T3 fibroblasts transduced with human IGF-1R) tumors. Sixty four female nude mice bearing subcutaneous LISN cell tumors were measured for tumor size and body weight and block randomized into eight groups of eight mice with an equal average tumor volume of approximately 362 mm^3. Mice were dosed with either vehicle (20% SBE pH3.5), Example 237 or Example 219. The dosing schedules for each compound were based on previous experiments with the compounds and doses chosen to give the highest tumor growth inhibition and a dose response. Example 237 was administered at 30 and 60 mg/kg QD for 21 days and 30 mg/kg BID for 21 days while Example 219 was administered at 50 and 100 mg/kg QD for 21 days, 25 and 50 mg/kg BID for 21 days.
The tumors on mice being treated with vehicle grew with the expected exponential growth throughout the 21 day study. […] The lower dose of 30 mg/kg QD of Example 237 achieved 15% tumor growth inhibition at day 21 (note: 2 animals were euthanized prior to the last measurement). […] This recovered to 3% by the end of dosing and fully recovered after dosing was concluded. […] This recovered fully within 4 days after the completion of dosing.

[4] = test system: NCI-H929 (multiple myeloma); test: Inhibition of cell proliferation, CellTiter-Glo, NCI-H929; type: cell-based; details: Homo sapiens, 72 h
In short: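 Cells were grown in medium with 10% FBS at 37° C, 5% CO2. Cell number was read as CellTiter-Glo luminescence (cellular ATP), with untreated wells as control.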

[5] = target: T2, IR (NIH-3T3 cells over expressing human IGF-1R or IR) (Homo sapiens, UniProt P06213); test: IR cellular autophosphorylation (DELFIA); type: cell-based; details: NIH-3T3 cells over expressing IR, insulin stimulated
T2 construct: expressed in transfected cells; host or cells: NIH-3T3 (mouse fibroblasts)
In short: as §1

[6] = target: T3, human IGF1R (hIGF1R) (Homo sapiens, UniProt P08069); test: IGF1R TR-FRET assay using peptide as the phosphoacceptor; type: biochemical; details: 10 μM ATP, 0.5 nM activated enzyme
T3 construct: containing amino acid residues 957-1367 of human IGF1R; made in house; host or cells: Sf9 cells, baculovirus
Description: A. IR and IGF1 R Time Resolved Fluorescence Resonance Energy Transfer (TR-FRET) Assay Using Peptide as the Phosphoacceptor
Substrate phosphorylation assays are carried out as follows:
The Source of Substrate Peptide
The biotinylated substrate peptide, (sequence-Biotin-aminohexyl-AEEEEY*[…]-NH2) SEQ. ID. 1 is purchased from QCB, Inc. (Hopkinton, Mass.). Purity is determined by HPLC. The calculated molecular mass of the peptide is 2216 dalton. Tyrosine phosphorylation by human IGF1R (hIGF1R) or human IR (hIR) occurs as indicated (Y*) in the peptide sequence described. Solid peptide sample is dissolved to approximately 1 mM in DMSO, aliquoted, and stored at −20° C. until use. True peptide concentration is determined by amino acid analysis.
The Source of Enzyme: • hIGF1R: GST-rTEV-IGF-1R (957-1367) containing amino acid residues 957-1367 of human IGF1R (as annotated by National Center for Biotechnology Information (NCBI) accession number NP_000866) is purified from a baculovirus expression system in Sf9 cells using Glutathione Sepharose 4FF column chromatography followed by Sephadex-200 size exclusion column chromatography. Enzyme purity of approximately 95% is achieved. Samples, in 25 mM Tris-HCl, 250 mM NaCl, 5% glycerol, 1 mM DTT, pH 7.5, are stored at −80° C. until use. • hIR: GST-rTEV-IR(979-1382) containing amino acid residues 979-1382 of human IR (as annotated by NCBI accession number NP_000199) is expressed and purified by the same process as hIGF1R. Enzyme purity of approximately 92% is achieved. Samples, in 25 mM Tris-HCl, 250 mM NaCl, 5% glycerol, 1 mM DTT, pH 7.5, are stored at −80° C. until use.
Activation of hIGF1R and hIR by Autophosphorylation: • hIGF1R: Activation of GST-rTEV-IGF-1R(957-1367) is achieved by a 4 minute incubation of hIGF1R (2.7 μM final) with 2 mM ATP in 50 mM HEPES, 20 mM MgCl2, 0.1 mg/mL BSA, at room temperature. Autophosphorylation is stopped by addition of EDTA (to 100 mM final). Aliquoted samples are flash frozen in liquid nitrogen and stored at −80° C. until use. • hIR: Activation of […] is achieved by a 5 minute incubation of hIR (2.7 μM final) with 2 mM ATP in 100 mM HEPES, 10 mM MgCl2, 0.1 mg/mL BSA, at room temperature. Autophosphorylation is stopped by addition of EDTA (to 100 mM final). Aliquoted samples are flash frozen in liquid nitrogen and stored at −80° C. until use. • Kinase Assay of Purified hIGF1R or hIR:
Assays are performed in 384-well (Greiner, Catalog No. 784076) microtiter plates. Reaction buffer (50 mM HEPES buffer, pH 7.5; 10 mM MgCl2; 3 mM DTT; 1 mM CHAPS; 0.1 mg/mL BSA) for peptide phosphorylation (10 μl volume) contained, in final concentrations, 500 nM biotinylated peptide substrate; 10 μM ATP; and purified, activated hIGF1R or hIR (0.5 nM). Some compounds were initially assayed against IGF1R in buffer without DTT or CHAPS. […] Compounds, titrated in DMSO, are evaluated at eleven concentrations ranging from 50 μM to 0.2 nM. […] No effect on activity relative to controls without DMSO is observed for hIGF1R or IR at these DMSO amounts. Reactions are incubated for 1 hour at room temperature and are stopped by a 5 μl addition of EDTA (to 33 mM). A further addition of 5 μl detection reagents (for final 7 nM Streptavidin-APC (PerkinElmer #CR130-150), 1 nM Europium-labeled anti-phosphotyrosine monoclonal antibody (PerkinElmer #AD0067), added in reaction buffer (without DTT), is required for signal generation. After 30 minutes, signal is read on PerkinElmer Viewlux microplate imager or Wallac Victor fluorometer.
Data were fitted to the curve described by:
y=((Vmax*x)/(K+x)) where • Vmax is the upper asymptote and • K is the IC50.
The results for each tested compound were recorded as pIC50 calculated as follows: […]

T2 sequence (P06213 28-1382): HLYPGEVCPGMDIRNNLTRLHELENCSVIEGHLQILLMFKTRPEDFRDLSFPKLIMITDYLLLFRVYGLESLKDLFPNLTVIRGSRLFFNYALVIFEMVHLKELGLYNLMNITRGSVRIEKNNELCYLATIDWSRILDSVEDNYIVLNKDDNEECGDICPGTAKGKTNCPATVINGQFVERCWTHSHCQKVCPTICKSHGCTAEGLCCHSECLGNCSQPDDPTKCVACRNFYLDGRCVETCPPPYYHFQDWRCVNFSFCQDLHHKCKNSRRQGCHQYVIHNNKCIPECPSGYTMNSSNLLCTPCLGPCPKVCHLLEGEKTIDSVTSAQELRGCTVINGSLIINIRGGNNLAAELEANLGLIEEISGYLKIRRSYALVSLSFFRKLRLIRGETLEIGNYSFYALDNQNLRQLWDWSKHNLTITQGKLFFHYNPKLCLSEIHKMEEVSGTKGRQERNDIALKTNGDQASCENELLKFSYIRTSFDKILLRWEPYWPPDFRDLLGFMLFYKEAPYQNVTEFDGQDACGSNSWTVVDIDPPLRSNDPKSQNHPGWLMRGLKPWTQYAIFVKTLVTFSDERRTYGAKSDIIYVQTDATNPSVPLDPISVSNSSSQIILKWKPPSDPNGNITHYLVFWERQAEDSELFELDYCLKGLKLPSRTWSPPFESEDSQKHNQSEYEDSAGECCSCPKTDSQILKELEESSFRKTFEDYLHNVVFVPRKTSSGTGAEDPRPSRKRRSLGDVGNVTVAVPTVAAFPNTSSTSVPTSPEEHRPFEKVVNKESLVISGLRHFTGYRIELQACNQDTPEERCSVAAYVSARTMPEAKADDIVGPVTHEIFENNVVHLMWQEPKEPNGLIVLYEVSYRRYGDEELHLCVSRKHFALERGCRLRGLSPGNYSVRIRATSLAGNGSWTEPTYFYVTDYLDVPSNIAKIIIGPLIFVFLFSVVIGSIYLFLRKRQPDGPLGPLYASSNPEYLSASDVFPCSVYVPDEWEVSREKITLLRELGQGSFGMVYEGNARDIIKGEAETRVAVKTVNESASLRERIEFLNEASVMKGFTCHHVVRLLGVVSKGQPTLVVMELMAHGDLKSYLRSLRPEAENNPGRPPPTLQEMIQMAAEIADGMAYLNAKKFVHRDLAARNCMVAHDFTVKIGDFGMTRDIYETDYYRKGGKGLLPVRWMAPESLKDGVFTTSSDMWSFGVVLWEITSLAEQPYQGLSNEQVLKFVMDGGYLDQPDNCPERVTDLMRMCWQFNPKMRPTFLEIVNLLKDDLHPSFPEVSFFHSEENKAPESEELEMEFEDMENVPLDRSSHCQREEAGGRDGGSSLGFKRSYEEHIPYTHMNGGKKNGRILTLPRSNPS
T1 sequence (P08069 31-1367): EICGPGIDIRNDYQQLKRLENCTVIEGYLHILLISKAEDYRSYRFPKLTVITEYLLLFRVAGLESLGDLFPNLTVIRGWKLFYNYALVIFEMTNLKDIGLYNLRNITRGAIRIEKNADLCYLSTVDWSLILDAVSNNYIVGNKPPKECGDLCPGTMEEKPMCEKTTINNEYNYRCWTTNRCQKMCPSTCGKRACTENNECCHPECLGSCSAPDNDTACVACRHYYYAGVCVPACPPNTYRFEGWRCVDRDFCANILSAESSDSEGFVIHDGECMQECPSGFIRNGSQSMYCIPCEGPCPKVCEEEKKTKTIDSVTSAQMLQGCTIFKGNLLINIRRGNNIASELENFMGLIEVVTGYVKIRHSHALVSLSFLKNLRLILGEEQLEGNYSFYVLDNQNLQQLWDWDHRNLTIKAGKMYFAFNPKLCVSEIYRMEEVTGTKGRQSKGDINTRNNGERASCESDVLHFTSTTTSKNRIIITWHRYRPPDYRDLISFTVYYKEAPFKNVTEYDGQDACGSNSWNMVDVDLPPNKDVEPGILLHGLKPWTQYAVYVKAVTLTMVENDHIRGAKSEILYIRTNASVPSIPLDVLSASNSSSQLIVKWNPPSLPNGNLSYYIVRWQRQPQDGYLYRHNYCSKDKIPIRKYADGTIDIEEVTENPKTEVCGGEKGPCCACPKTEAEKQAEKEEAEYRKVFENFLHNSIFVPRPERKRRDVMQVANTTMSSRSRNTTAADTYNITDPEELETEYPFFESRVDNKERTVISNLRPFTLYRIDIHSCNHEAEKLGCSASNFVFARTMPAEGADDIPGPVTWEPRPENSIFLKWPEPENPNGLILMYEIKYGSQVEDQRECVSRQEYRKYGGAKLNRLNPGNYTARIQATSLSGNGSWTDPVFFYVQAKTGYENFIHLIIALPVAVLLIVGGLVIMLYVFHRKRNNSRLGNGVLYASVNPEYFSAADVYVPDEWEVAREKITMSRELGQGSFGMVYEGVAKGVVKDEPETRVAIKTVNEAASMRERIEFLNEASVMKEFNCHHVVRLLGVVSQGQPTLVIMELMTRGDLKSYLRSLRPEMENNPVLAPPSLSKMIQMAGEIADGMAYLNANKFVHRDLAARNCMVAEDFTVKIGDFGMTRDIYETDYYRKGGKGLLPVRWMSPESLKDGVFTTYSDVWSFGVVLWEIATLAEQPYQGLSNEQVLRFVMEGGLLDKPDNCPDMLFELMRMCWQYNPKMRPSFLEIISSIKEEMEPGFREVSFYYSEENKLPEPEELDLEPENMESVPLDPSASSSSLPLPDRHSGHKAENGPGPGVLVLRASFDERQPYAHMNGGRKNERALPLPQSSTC
T3 sequence (P08069 957-1367): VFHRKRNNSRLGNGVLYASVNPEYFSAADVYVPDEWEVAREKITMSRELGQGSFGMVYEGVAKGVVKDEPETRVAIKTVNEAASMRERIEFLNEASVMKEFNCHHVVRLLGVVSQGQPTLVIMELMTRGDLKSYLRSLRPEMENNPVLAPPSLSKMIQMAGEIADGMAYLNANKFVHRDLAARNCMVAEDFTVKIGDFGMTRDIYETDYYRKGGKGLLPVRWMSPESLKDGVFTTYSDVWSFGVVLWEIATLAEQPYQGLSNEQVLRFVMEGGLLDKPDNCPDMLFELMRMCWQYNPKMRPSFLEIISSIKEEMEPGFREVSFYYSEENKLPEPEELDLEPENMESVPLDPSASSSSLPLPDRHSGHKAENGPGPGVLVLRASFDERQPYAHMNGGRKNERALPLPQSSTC

| IC50 [1] [nM] | IC50 [2] [nM] | IC50 [4] [nM] | IC50 [5] [nM] | Compound | IGF-1R pIC50 [6] | further results |
| --- | --- | --- | --- | --- | --- | --- |
| 250 to 1000 | < 100 | < 250 | < 100 | COc1cc(N2CCC(N3CCN(S(C)(=O)=O)CC3)CC2)ccc1Nc1nccc(-c2c(-c3cccc(C(=O)Nc4c(F)cccc4F)c3)nc3ccccn23)n1 [Example 58, N-(2,6-difluorophenyl)-3-(3-{2-[(2-(methyloxy)-4-{4-[4-(methylsulfonyl)-1-piperazinyl]-1-piperidinyl}phenyl)amino]-4-pyrimidinyl}imidazo[1,2-a]pyridin-2-yl)benzamide] |  | tumor growth inhibition ([3]; LISN, 30 mg/kg QD for 21 days): 28%; tumor growth inhibition ([3]; LISN, 100 mg/kg QD for 21 days): 46%; tumor growth inhibition ([3]; LISN, 300 mg/kg QD for 21 days): 45%; effect on body weight loss ([3]; LISN, 30, 100 and 300 mg/kg QD, throughout the study): no effect |
| < 250 | < 100 | < 250 | < 100 | CCOc1ccc(-c2nc3ccccn3c2-c2ccnc(Nc3cc(CC)c(N4CCC(CCS(C)(=O)=O)CC4)cc3OC)n2)cc1C(=O)Nc1c(F)cccc1F [Example 209, N-(2,6-difluorophenyl)-5-(3-{2-[(5-ethyl-2-(methyloxy)-4-{4-[2-(methylsulfonyl)ethyl]-1-piperidinyl}phenyl)amino]-4-pyrimidinyl}imidazo[1,2-a]pyridin-2-yl)-2-(ethyloxy)benzamide] | ++ (at least one average pIC50 measurement greater than 6 against the kinase tested but no average measurement greater than pIC50 of 7) |  |
| < 250 | < 100 | < 250 | < 100 | COc1cc(N2CCC(CCS(C)(=O)=O)CC2)c(C)cc1Nc1nccc(-c2c(-c3ccc(OC(C)C)c(C(=O)Nc4c(F)cccc4F)c3)nc3ccccn23)n1 [Example 214, N-(2,6-difluorophenyl)-2-[(1-methylethyl)oxy]-5-(3-{2-[(5-methyl-2-(methyloxy)-4-{4-[2-(methylsulfonyl)ethyl]-1-piperidinyl}phenyl)amino]-4-pyrimidinyl}imidazo[1,2-a]pyridin-2-yl)benzamide] | ++ (at least one average pIC50 measurement greater than 6 against the kinase tested but no average measurement greater than pIC50 of 7) |  |
| < 250 | < 100 | < 250 | < 100 | CCOc1cc(N2CCC(CCS(C)(=O)=O)CC2)c(C)cc1Nc1nccc(-c2c(-c3ccc(OC)c(C(=O)Nc4c(F)cccc4F)c3)nc3ccccn23)n1 [Example 219, N-(2,6-difluorophenyl)-5-(3-{2-[(2-(ethyloxy)-5-methyl-4-{4-[2-(methylsulfonyl)ethyl]-1-piperidinyl}phenyl)amino]-4-pyrimidinyl}imidazo[1,2-a]pyridin-2-yl)-2-(methyloxy)benzamide] |  | tumor growth inhibition at day 21 ([3]; 25 mg/kg BID for 21 days): 16%; tumor growth inhibition at day 21 ([3]; 50 mg/kg BID for 21 days): 76%; tumor growth inhibition at day 21 ([3]; 50 mg/kg QD for 21 days): 29%; tumor growth inhibition at day 21 ([3]; 100 mg/kg QD for 21 days): 44%; time to full recovery of body weight after the completion of dosing ([3]; LISN, 25 mg/kg BID and 50 mg/kg BID): ≤ 4 days; body weight loss ([3]; LISN, 25 mg/kg BID for 21 days): 4%; body weight loss ([3]; LISN, 50 mg/kg BID for 21 days): 6%; body weight loss ([3]; LISN, 100 mg/kg and 50 mg/kg QD): no body weight loss |

| Compound | IC50 [1] [nM] | IC50 [2] [nM] | IC50 [4] [nM] | IC50 [5] [nM] | IGF-1R pIC50 [6] | further results |
| --- | --- | --- | --- | --- | --- | --- |
| CCc1cc(Nc2nccc(-c3c(-c4ccc(OC)c(C(=O)Nc5c(F)cccc5F)c4)nc4ccccn34)n2)c(OC)cc1N1CCC(N2CCN(S(C)(=O)=O)CC2)CC1 [Example 237, N-(2,6-difluorophenyl)-5-(3-{2-[(5-ethyl-2-(methyloxy)-4-{4-[4-(methylsulfonyl)-1-piperazinyl]-1-piperidinyl}phenyl)amino]-4-pyrimidinyl}imidazo[1,2-a]pyridin-2-yl)-2-(methyloxy)benzamide] | < 250 | < 100 | < 250 | < 100 |  | tumor growth inhibition at day 21 ([3]; 30 mg/kg BID for 21 days): 84%; tumor growth inhibition at day 21 ([3]; 30 mg/kg QD for 21 days, 2 animals euthanized prior to the last measurement): 15%; tumor growth inhibition at day 21 ([3]; 60 mg/kg QD for 21 days): 41%; body weight loss by the end of dosing ([3]; LISN, 30 mg/kg BID): 3%; initial body weight loss ([3]; LISN, 30 mg/kg BID): 6%; effect on body weight loss ([3]; LISN, other groups (30 and 60 mg/kg QD)): no effect |
